Source: US9000033B2, “Composition for improving skin condition and appearance” (Arch Personal Care Products, L.P., priority 2008, dated 2015)

Key:
[1] = test system: COL1A1 (collagen 1A1 gene); assay: Human gene microarray, Type 1A1 Collagen gene expression in normal human dermal fibroblasts; type: cell-based; conditions: for expression levels of collagen 1A1 gene: an appropriate amount
Protocol: (§1) Normal human dermal fibroblasts were grown in culture flasks until confluent using appropriate culture conditions. […] A separate flask of cells was treated with culture media alone and acted as an untreated control. After applying the test material the cells the cells were incubated for 24 hours at 37±2° C. and 5±1% CO2. At the end of the incubation period the culture media was removed via aspiration and the cells were washed once with cold phosphate buffered saline. After removing the wash the cells they were lysed by adding 700 μl of guanidinium thiocyanate lysis solution. The cell lysate was stored at −75° C. until the RNA extraction process could be completed (see below).
(§2) To the cell lysates prepared above, an equal volume of 64% ethanol was added and the tubes were vortexed. After combining, up to 700 μl of the mixture was transferred to a glass fiber filter cartridge, and the cartridge was loaded into a 1.5 ml collection tube and the cartridge was centrifuged for 1 minute at 14,000 RPM. The flow through was discarded and any remaining mixture was loaded into the filter cartridge and the centrifugation process was repeated until all of the mixture had been processed. The filter was then washed to remove any residual cellular debris from the RNA bound to the glass fibers by subsequently applying 700 μl of wash solution 1 (1 time) and 500 μl of wash solution 2 (2 times) to the filter cartridge and centrifuging at 14,000 RPM for 1 minute to pass each wash through the cartridge. After each wash the flowthrough was discarded. After the final wash one final spin was performed without wash solution to remove any residual wash solution in the filter cartridge. The RNA bound to the glass fibers within the cartridge was eluted by applying 30 μl of Tris-EDTA buffer (10 mM Tris-HCl, 1 mM EDTA, preheated to 70-80° C.) to the cartridge and centrifuging the cartridge in a new collection tube at 14,000 RPM for one minute. The elution process was repeated with an additional 30 μl of preheated TE buffer. After the RNA was eluted its concentration was quantified using a Ribogreen assay.
(§3) mRNA Amplification (Ambion MessageAmnp aRNA kit) First Strand cDNA Synthesis: To start the first strand synthesis, 5 μg of total RNA for each sample was added to 600 μl PCR tubes and the total volume of liquid in the tube was adjusted to 12 μl with DEPC H2O. To each tube, 1 μl of T7 Oligo(dT) primer was added and the tube was incubated at 70±2° C. for 10 minutes to denature the RNA and then placed on ice to allow the primer to anneal to the poly A ends of the mRNA. After cooling 2 μl of 10× first strand buffer, 1 μl of RNAse inhibitor and 4 μl of dNTP Mix were added to each tube, and each tube was placed at 42° C. 1 μl of Reverse Transcriptase was added and the tubes were heated and maintained at 42±2° C. for 2 hours. […]
(§4) Second Strand Synthesis and cDNA Purification: For the synthesis of the second strand of cDNA the following items were added to the tubes above (in this order): 63 μl DEPC H2O, 10 μl 10× second strand buffer, 4 μl dNTP mix, 2 μl DNA Polymerase and 1 μl of RNAse H. The tube was mixed and then incubated at 16±2° C. for 2 hours. Towards the end of the 2 hour incubation a sufficient quantity of DEPC H2O was warmed to 50±2° C. and a cDNA purification filter cartridge was equilibrated with 50 μl of cDNA binding buffer (one cartridge per sample) for at least 5 minutes. […]

ELN (elastin gene) = assay: Human gene microarray, Elastin gene expression in normal human dermal fibroblasts; type: cell-based; conditions: for expression levels of elastin gene: an appropriate amount
Protocol: as §1, §2, §3, §4

[2] = concentration from 0.0001 to 0.05%
[3] = normal human dermal fibroblasts, 0.05%
[4] = normal human dermal fibroblasts, 0.05% pomiferin, 24 hours, fluorescence intensity, Cy5 (treated) channel

SMILES: CC(C)=CCc1c2c(c3occ(-c4ccc(O)cc4)c(=O)c3c1O)C=CC(C)(C)O2 [osajin]
- expression levels of collagen 1A1 gene [1]: significantly increase
- expression levels of elastin gene (ELN (elastin gene)): significantly increase

SMILES: CC(C)=CCc1c2c(c3occ(-c4ccc(O)c(O)c4)c(=O)c3c1O)C=CC(C)(C)O2 [pomiferin]
- expression levels of collagen 1A1 gene [1]: significantly increase
- increasing collagen 1A1 gene expression [1, 2]: equally effective
- collagen 1A1 gene expression compared to untreated cells [1, 3]: statistically significant increase
- F635 Median, COL1A1 [1, 4]: 38576
- expression levels of elastin gene (ELN (elastin gene)): significantly increase
- increasing elastin gene expression (ELN (elastin gene); [2]): equally effective
- elastin gene expression compared to untreated cells (ELN (elastin gene); [3]): statistically significant increase
- F635 Median, ELN (ELN (elastin gene); [4]): 3010
